The assay in a line: Ability to induce shape change (polarization) in human polymorphonuclear leukocytes (PMN).
Broadly, the EC50 is the concentration giving half of the maximal effect. The molecule `CSCC[C@H](NC(=O)[C@H](CC(=O)O)NC(=O)[C@H](CCCCN)NC(=O)[C@H](Cc1ccccc1)NC(=O)[C@H](CO)NC(=O)[C@@H](N)Cc1ccc(O)cc1)C(=O)N1CCC[C@H]1C(=O)N[C@@H](CC(C)C)C(=O)NCC(=O)N[C@@H](CCCNC(=N)N)C(=O)O` came in with a 50% effective concentration (EC50) of 5 µM.
Turning to `CC(C)C[C@H](NC(=O)[C@@H]1CCCN1C(=O)[C@H](C)NC(=O)[C@H](CC(=O)O)NC(=O)[C@H](CCCCN)NC(=O)[C@H](Cc1ccccc1)NC(=O)[C@H](CO)NC(=O)[C@@H](N)Cc1ccc(O)cc1)C(=O)NCC(=O)N[C@@H](CCCNC(=N)N)C(=O)O`, the EC50 was found to be 15.8 µM.
“H-YSFKDMQLGR-OH [Tyr-Ser-Phe-LyS-Asp-Met-Glu-Leu-Gly-Arg]” returned an EC50 of 37 µM.
H-YSFKDMQPGR-OH yielded an EC50 of 22 µM.
Turning to H-YSFKGLLLGR-OH, the midpoint of the response, the EC50, lay at 0.3 µM.

For the origin of these results see BindingDB's records for doi:10.1021/jm00018a028 (University of Nebraska Medical Center, 1995).
